Experimental data reported in patent US4631292A, “1,3-dioxane derivatives, method of their synthesis and anti-peptic ulcer agent” (Kotobuki Seiyaku Co., Ltd., priority 1983, dated 1986).

Assays:
[1] = system: aspirin-induced pylorus-ligated rats; assay: Aspirin-induced ulcer in pylorus-ligated rats (method of S. Okabe); format: in vivo; details: oral dose 500 mg/kg
Experimental: (1) The effect of the compounds of the invention is examined by using aspirin-induced pylorus-ligated rats according to the methods of S. Okabe (Oyo-Yakuri 9 (1), 31-37 1975). The test compounds are given orally at a dose of 500 mg./kg.

ethanol induced ulcer = assay: Ethanol induced ulcer (method of L. Robert, modified); format: in vivo; details: ethanol/HCl induced ulcer, rats; for ulcer index (mm): 30 min before ethanol, 1 hour after ethanol
Experimental: (2) The effect on ethanol induced ulcer is examined according to the method of L. Robert (Gastroenterology 77,433-443, 1979) with some modification. Rats are fasted for 24 hrs. and after 30 min. of the oral test drug administration, 1 ml. of 60% ethanol of 150 mM hydrochloric acid solution is given.
Exactly 1 hour later, the animals are sacrificed and the stomach is removed to examine their ulcer index.

CC(C)=CCCC1OCCC(C)O1 (centres unmarked) [Compound 1, 2-(4-methyl-3-pentene)-6-methyl-1,3-dioxane]
% inhibition [1]: 50.6%
ulcer index (mm) ± S.E. [1]: 11.0 ± 2.98 mm

CC(C)=CCCC(C)CC1OCCC(C)O1 (centres unmarked) [Compound 2, 2-(2,6-dimethyl-5-heptene)-6-methyl-1,3-dioxane]
% inhibition [1]: 35.9%
ulcer index (mm) ± S.E. [1]: 27.8 ± 7.1 mm

CC(C)=CCCC1(C)OCCC(C)O1 (centres unmarked) [Compound 5, 2-(4-methyl-3-pentenyl)-2-methyl-4-methyl-1,3-dioxane]
% inhibition [1]: 88.1%
ulcer index (mm) ± S.E. [1]: 2.2 ± 0.8 mm
% inhibition (ethanol induced ulcer; oral dose 100 mg/kg): 59.7%
ulcer index (mm) (ethanol induced ulcer; oral dose 100 mg/kg): 27.1 ± 7.3 mm
% inhibition (ethanol induced ulcer; oral dose 500 mg/kg): 95.1%
ulcer index (mm) (ethanol induced ulcer; oral dose 500 mg/kg): 3.3 ± 1.2 mm

CC1CCC(C(C)C)C2(C1)OCCC(C)O2 (centres unmarked) [Compound 6, spiro[2isopropyl-5-methyl-cyclohexane-1,2'-4'-methyl 1',3']dioxane]
% inhibition [1]: 53.9%
ulcer index (mm) ± S.E. [1]: 10.3 ± 4.16 mm

CC(C)=CCCC1(C)OC(C)CC(C)O1 (centres unmarked) [Compound 11, 2-(4-methyl-3-pentenyl)-2-methyl-4,6-dimethyl-1,3-dioxane]
% inhibition [1]: 33.7%
ulcer index (mm) ± S.E. [1]: 14.5 ± 5.12 mm
